A short description of data set [1]: Chemical stability of compositions on storage (total impurities). It counts as physicochemical. From the text: [No. 1 in FIG. 3b is isopropyl ((R)—((((R)-1-(6-amino-9H-purin-9-yl)propan-2-yl)oxy)methyl) (phenoxy)phosphoryl)-L-alaninate]
A short description of another data set: physchem. Conditions: water.
For data set [2] the following is noted: cited from earlier work.
The nature of data set [3]: Syringeability/injectability with various wetting agents. Type of data set: physicochemical. The conditions noted are these: 40% TAF/60% PLGA 5050, 125 mg/mL suspension, wetting agent in minimal amounts. The procedure:
Suspending vehicles with various wetting agents were prepared. […] A formulation 40% TAF (free base, crystalline, and micronized) and 60% PLGA 5050 was used to obtain a 125 mg/mL suspension. These suspensions were evaluated for syringeability/injectability. […] Additionally, Tween 80 could accommodate sterilization via filtration.

≈ marks a conversion by molar mass, not a printed value.

Consider `CC(C)OC(=O)[C@H](C)N[P@](=O)(CO[C@H](C)Cn1cnc2c(N)ncnc21)Oc1ccccc1` [Free base, (S)-isopropyl-2-(((S)—((((R)-1-(6-amino-9H-purin-9-yl)propan-2-yl)oxy)methyl)(phenoxy)phosphoryl)amino)propanoate], for which the total impurities in data set [1] (40° C./75% RH closed for 2 weeks) is given as 2.1%. In data set [1] (initial), the “total impurities observed initially” value is 2.1%. Also, the solubility in the data set “physchem” was ~3500 µg/mL (≈ 7.35 mM).
Poly(D,L-lactide) [PDLLA]: the “degradation time in vivo” value in data set [2] is 12-18 months.
On to polysorbate 80 [Tween 80], for which the “syringeability/injectability through a 20 G needle” value in data set [3] is given as “improved syringeability/injectability”.

(Values after US20220296619A1, “PHARMACEUTICAL FORMULATIONS OF TENOFOVIR ALAFENAMIDE” (priority 2019, published 2022).)
